Data as given in the supplement of paper PMC12463676, “Small-molecule dissolution of stress granules by redox modulation benefits ALS models” (Nature Chemical Biology, 2025).

Tests used:
lipoamide = compound: NC(=O)CCCCC1CCSS1 [lipoamide]; experiment: thermal stability z-score vs DMSO; higher = more thermally stabilized by treatment; details: HeLa, lipoamide concentration 100 µM
Experimental: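 Cellular thermal proteome profiling in HeLa cells. Cells were treated with 100 µM lipoamide for 1 h, with or without 1 mM arsenate for a further 1 h, then heated to ten temperatures (37-66.3 °C), and soluble protein was quantified by TMT mass spectrometry relative to 0.1% DMSO controls. The thermal stability score (sum of log2 fold changes minus the abundance score) was transformed to a z-score; mean of n = 3 experiments.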

potassium arsenate = compound: O=[As]([O-])(O)O.[K+] [potassium arsenate]; experiment: as above; details: HeLa; arsenate concentration 1 mM
Experimental: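 Cellular thermal proteome profiling in HeLa cells treated with 1 mM arsenate for 1 h (DMSO pretreatment), heated to ten temperatures (37-66.3 °C). Soluble protein was quantified by TMT mass spectrometry relative to DMSO controls; the thermal stability score was transformed to a z-score; mean of n = 3 experiments.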

[1] = arsenate co-treatment: 1 mM arsenate 1 h
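Further: each temperature applied for 3 min, abundance score taken as mean log2 fold change at the two lowest temperatures, z-score obtained by mean subtraction and division by SD.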

Sequence of UniProt P29144 (P29144 whole entry): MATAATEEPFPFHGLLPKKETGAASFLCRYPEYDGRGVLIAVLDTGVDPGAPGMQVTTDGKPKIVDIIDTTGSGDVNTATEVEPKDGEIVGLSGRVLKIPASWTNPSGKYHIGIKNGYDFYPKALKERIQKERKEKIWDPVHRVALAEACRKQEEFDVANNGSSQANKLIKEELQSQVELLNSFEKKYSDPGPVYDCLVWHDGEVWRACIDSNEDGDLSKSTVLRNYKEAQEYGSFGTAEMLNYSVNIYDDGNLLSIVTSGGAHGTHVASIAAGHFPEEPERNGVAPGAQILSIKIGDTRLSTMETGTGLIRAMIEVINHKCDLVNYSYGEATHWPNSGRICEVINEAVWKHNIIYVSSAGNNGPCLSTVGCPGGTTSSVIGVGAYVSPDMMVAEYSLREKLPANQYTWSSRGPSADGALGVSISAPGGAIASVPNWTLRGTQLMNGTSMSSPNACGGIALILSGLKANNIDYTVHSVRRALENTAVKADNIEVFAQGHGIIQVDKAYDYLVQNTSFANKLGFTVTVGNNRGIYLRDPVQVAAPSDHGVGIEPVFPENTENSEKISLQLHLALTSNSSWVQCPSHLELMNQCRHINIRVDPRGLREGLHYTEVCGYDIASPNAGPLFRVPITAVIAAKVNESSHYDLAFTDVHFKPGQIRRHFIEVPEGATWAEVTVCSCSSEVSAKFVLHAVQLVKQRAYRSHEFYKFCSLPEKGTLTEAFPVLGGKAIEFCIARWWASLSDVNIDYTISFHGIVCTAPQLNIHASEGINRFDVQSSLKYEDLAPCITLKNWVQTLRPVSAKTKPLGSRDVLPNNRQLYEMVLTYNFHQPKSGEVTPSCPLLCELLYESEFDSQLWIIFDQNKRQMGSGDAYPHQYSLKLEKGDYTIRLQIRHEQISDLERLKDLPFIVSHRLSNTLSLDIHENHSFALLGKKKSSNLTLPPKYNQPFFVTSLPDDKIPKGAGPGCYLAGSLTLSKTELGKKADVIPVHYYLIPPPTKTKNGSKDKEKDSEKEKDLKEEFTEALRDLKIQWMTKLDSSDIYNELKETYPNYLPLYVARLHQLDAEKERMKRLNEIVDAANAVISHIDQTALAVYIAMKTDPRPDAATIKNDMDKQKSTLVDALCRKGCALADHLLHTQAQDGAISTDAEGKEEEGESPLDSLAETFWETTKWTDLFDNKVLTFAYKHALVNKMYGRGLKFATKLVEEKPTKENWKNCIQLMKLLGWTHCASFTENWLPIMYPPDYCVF
Sequence of UniProt P67936 (P67936 whole entry): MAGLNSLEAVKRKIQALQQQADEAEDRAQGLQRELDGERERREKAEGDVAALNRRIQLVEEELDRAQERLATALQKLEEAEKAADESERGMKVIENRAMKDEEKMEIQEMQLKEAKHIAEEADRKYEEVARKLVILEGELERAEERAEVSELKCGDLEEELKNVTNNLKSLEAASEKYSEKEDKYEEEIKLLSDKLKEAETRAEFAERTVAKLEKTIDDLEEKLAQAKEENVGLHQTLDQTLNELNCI
Sequence of UniProt O43617 (O43617 whole entry): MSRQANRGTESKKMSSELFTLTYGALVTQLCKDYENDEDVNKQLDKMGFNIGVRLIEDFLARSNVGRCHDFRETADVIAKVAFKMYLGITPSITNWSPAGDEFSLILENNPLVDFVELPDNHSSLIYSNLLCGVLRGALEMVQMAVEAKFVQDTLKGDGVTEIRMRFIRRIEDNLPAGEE
Sequence of UniProt Q9Y4K3 (Q9Y4K3 whole entry): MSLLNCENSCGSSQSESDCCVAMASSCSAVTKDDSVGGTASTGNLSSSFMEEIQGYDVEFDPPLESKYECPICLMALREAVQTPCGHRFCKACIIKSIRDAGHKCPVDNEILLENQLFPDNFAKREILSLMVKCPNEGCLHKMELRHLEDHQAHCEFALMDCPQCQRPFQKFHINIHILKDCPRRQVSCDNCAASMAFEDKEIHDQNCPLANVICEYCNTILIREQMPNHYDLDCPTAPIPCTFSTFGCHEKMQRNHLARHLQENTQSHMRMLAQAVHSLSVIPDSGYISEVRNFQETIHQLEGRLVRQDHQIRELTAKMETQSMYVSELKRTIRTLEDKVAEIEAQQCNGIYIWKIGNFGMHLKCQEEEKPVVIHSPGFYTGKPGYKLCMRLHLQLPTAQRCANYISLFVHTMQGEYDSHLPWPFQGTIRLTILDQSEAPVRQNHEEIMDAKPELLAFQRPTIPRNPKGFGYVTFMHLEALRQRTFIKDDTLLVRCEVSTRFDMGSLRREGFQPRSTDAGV
Sequence of UniProt Q6Q0C0 (Q6Q0C0 whole entry): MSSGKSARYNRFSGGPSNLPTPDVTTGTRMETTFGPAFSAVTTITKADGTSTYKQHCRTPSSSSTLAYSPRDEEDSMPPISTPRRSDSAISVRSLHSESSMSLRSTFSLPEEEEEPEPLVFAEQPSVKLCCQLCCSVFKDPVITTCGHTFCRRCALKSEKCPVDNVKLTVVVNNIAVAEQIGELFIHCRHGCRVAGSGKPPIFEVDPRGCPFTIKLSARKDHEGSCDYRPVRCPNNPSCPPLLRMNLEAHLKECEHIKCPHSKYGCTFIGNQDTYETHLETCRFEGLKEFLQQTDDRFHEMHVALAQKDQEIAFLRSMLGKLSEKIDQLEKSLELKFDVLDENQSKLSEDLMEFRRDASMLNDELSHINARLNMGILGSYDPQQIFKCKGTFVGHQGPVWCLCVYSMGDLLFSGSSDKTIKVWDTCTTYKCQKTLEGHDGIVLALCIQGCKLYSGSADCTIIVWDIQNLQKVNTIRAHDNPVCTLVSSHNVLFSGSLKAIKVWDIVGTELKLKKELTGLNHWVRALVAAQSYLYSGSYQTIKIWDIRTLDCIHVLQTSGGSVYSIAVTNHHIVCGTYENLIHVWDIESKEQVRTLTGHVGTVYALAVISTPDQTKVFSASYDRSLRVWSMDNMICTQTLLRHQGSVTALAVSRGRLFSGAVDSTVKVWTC
Sequence of UniProt Q9UL33 (Q9UL33 whole entry): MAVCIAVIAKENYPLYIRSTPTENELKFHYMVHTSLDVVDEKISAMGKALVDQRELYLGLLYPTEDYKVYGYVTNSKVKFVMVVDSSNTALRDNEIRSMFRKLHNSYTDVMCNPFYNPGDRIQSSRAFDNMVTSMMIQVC
Sequence of UniProt Q12933 (Q12933 whole entry): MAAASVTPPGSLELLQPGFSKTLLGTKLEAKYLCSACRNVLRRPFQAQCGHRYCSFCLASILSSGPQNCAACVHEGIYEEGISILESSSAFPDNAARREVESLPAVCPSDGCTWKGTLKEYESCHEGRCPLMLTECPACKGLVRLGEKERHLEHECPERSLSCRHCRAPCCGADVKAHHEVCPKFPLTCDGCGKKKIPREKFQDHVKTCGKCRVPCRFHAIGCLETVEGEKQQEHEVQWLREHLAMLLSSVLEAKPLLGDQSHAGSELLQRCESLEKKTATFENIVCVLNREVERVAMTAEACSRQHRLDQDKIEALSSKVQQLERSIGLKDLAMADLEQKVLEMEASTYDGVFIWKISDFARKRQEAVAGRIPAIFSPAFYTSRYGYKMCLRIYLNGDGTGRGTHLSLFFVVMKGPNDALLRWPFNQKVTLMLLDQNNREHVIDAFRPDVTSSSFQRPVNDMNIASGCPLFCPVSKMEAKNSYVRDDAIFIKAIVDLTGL
Sequence of UniProt O14773 (O14773 whole entry): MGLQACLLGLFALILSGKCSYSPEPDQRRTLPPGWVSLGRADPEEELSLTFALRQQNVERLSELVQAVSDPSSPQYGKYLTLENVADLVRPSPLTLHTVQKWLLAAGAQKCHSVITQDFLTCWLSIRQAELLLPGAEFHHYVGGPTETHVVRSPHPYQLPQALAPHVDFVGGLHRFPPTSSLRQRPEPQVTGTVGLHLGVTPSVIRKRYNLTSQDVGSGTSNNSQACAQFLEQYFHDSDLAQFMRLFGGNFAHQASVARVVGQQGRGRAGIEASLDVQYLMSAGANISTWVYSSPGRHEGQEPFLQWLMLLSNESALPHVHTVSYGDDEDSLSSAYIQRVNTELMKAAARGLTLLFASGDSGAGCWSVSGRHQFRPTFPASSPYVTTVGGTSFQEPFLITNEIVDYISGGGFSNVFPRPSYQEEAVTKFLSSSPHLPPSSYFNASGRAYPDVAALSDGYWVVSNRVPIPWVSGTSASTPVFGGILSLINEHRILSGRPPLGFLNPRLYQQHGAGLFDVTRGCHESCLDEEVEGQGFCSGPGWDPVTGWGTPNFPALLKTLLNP
Sequence of UniProt O43734 (O43734 whole entry): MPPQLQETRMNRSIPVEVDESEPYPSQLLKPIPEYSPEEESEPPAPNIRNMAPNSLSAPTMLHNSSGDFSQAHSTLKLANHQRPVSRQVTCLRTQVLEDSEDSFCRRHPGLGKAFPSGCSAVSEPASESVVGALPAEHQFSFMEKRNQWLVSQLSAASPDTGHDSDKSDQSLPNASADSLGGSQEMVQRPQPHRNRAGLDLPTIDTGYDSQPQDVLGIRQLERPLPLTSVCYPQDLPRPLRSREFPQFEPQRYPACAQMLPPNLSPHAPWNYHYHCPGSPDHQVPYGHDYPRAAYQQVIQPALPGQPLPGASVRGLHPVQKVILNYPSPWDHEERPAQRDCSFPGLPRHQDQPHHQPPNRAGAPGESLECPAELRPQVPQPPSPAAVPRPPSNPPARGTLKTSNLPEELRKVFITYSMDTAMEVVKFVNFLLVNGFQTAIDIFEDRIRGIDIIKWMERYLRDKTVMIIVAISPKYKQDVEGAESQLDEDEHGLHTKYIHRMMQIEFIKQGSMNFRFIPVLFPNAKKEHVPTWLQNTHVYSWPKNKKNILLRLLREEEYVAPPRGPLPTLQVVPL
Sequence of UniProt P07951 (P07951 whole entry): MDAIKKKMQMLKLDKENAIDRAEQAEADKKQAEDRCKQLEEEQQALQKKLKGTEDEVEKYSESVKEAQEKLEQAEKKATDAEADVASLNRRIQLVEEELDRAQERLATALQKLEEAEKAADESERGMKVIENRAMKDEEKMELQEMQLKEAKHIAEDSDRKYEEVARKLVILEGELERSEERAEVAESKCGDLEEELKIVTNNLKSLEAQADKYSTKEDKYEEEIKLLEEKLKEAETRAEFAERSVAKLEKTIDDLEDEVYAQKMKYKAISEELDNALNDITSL

| Target | thermal stability z-score (lipoamide; [1]) | thermal stability z-score (lipoamide; arsenate co-treatment: none) | thermal stability z-score (potassium arsenate) |
| --- | --- | --- | --- |
| TP53RK (UniProt Q96S44) | 0.0309 | -0.743 | -0.367 |
| TPBG (UniProt Q13641) | -0.727 | -0.884 | -0.766 |
| TPCN1 (UniProt Q9ULQ1) | 0.0393 | -0.00808 | -0.538 |
| TPD52 (UniProt P55327) | 2.04 | 2.1 | 1.35 |
| TPD52L1 (UniProt Q16890) | 0.471 | 0.545 | 0.237 |
| TPD52L2 (UniProt O43399) | 1.01 | 1.19 | 0.621 |
| TPI1 (UniProt P60174) | 0.408 | 0.0882 | -0.48 |
| TPM1 (UniProt P09493) | 0.347 | 0.422 | -0.151 |
| TPM2 (UniProt P07951) | 0.624 | 0.462 | -0.068 |
| TPM3 (UniProt P06753) | 0.676 | 0.821 | 0.131 |
| TPM4 (UniProt P67936) | 0.31 | 0.407 | -0.0802 |
| TPMT (UniProt P51580) | 0.308 | 0.31 | -0.162 |
| TPP1 (UniProt O14773) | -0.299 | -0.137 | -0.0975 |
| TPP2 (UniProt P29144) | 0.657 | 0.44 | 0.194 |
| TPPP (UniProt O94811) | -0.836 | 0.123 | -0.479 |
| TPR (UniProt P12270) | 2.13 | 1.1 | -2.19 |
| TPRA1 (UniProt Q86W33) | -0.68 | -0.251 | 0.19 |
| TPRG1L (UniProt Q5T0D9) | -0.302 | 0.421 | 0.921 |
| TPRKB (UniProt Q9Y3C4) | -0.134 | -0.764 | -0.881 |
| TPT1 (UniProt P13693) | 0.494 | 0.196 | -0.445 |
| TPX2 (UniProt Q9ULW0) | 0.967 | 0.322 | 0.448 |
| TRA2B (UniProt P62995) | 2.37 | -0.56 | -0.649 |
| TRABD2A (UniProt Q86V40) | -0.806 | -1.21 | 0.517 |
| TRABD (UniProt Q9H4I3) | 0.366 | 0.172 | -0.0912 |
| TRADD (UniProt Q15628) | 0.0371 | 0.0442 | -0.497 |
| TRAF2 (UniProt Q12933) | -0.41 | -0.458 | -4.2 |
| TRAF3IP1 (UniProt Q8TDR0) | 0.519 | 0.373 | 0.694 |
| TRAF3IP2 (UniProt O43734) | -0.106 | -0.159 | -0.155 |

| Target | thermal stability z-score (lipoamide; [1]) | thermal stability z-score (lipoamide; arsenate co-treatment: none) | thermal stability z-score (potassium arsenate) |
| --- | --- | --- | --- |
| TRAF4 (UniProt Q9BUZ4) | -0.818 | -0.748 | -4.33 |
| TRAF6 (UniProt Q9Y4K3) | -0.0771 | -0.0851 | -0.00689 |
| TRAF7 (UniProt Q6Q0C0) | 0.0114 | -0.686 | -1.01 |
| TRAFD1 (UniProt O14545) | -1.34 | -0.816 | -2.25 |
| TRAM1 (UniProt Q15629) | -0.499 | -1.11 | 0.968 |
| TRAP1 (UniProt Q12931) | -1.2 | 0.188 | -0.477 |
| TRAPPC1 (UniProt Q9Y5R8) | 0.425 | 0.512 | 0.484 |
| TRAPPC2L (UniProt Q9UL33) | -0.426 | 0.338 | -0.119 |
| TRAPPC3 (UniProt O43617) | 0.589 | -0.0881 | 0.422 |
| TRAPPC4 (UniProt Q9Y296) | -0.271 | 0.0129 | -0.0725 |
| TRAPPC5 (UniProt Q8IUR0) | 1.28 | -0.246 | 0.00376 |
| TRAPPC6B (UniProt Q86SZ2) | -0.428 | -1.19 | -0.511 |
| TRAPPC8 (UniProt Q9Y2L5) | 0.257 | 0.348 | 0.311 |
| TRAPPC9 (UniProt Q96Q05) | 0.0964 | -0.258 | 0.167 |
| TRAPPC10 (UniProt P48553) | 0.191 | 0.411 | 0.381 |
| TRAPPC11 (UniProt Q7Z392) | -0.549 | -1.8 | -0.537 |
| TRAPPC12 (UniProt Q8WVT3) | -0.757 | -1.04 | 0.0727 |
| TRAPPC13 (UniProt A5PLN9) | 0.252 | -0.0347 | -0.371 |
| TREX1 (UniProt Q9NSU2) | -0.5 | -0.0932 | -2.07 |
| TRIM3 (UniProt O75382) | 0.012 | 0.061 | -0.044 |
| TRIM4 (UniProt Q9C037) | -0.218 | 0.0313 | -0.143 |
| TRIM5 (UniProt Q9C035) | 0.224 | 0.183 | 0.259 |
| TRIM11 (UniProt Q96F44) | -0.68 | -1.71 | -1.05 |
| TRIM16 (UniProt O95361) | -0.0466 | -0.0815 | -0.0294 |
| TRIM21 (UniProt P19474) | -0.677 | -0.149 | 0.307 |
| TRIM24 (UniProt O15164) | 0.0835 | 0.184 | -0.334 |
| TRIM25 (UniProt Q14258) | -0.86 | -0.867 | -0.882 |
